The values below come from US10624867B2, “Transdermally-delivered combination drug therapy for pain” (BioChemics, Inc., priority 2017, dated 2020).

The structures appear in SMILES notation.

Experiment [1] concerns CFA inflammation-induced mechanical hyperalgesia. Nature of the experiment: CFA inflammation model, mechanical response (von Frey stimulation), set A. Type of experiment: in vivo, Sprague-Dawley rats. The conditions noted are these: CFA rats. From the text:
(§1) Two parallel studies (two arms) were done, each with four treatment groups, with four Sprague-Dawley rats per group. The rats used were male rats weighing 175-200 grams. Half of the rats were given injections of 1:1 complete Freund's adjuvant (CFA) on day 0 to produce long-term inflammation of the left hindpaw; the other half of the rats were given spared nerve injury (SNI, transection of 2 of 3 branches of the sciatic nerve) in the lower thigh on day 0.
(§2) Before treatments, rats' baseline response thermal latencies (on a glass surface suspended above a moveable heat lamp) or mechanical thresholds (on a wire mesh surface suspended above a moveable electronic von Frey stimulator) were determined after 15 min acclimatization on the thermal or mechanical testing apparatuses.
(§3) The CFA model of persistent inflammatory hyperalgesia in one hindpaw of the rats was utilized (see Gold and Gebhart, Nature Medicine 16: 1248-1257, 2010). This model produces edema, reddening, inflammation, and behavioral hypersensitivity. Experimental groups of rats were anesthetized with isoflurane before receiving an intraplantar injection into the left hindpaw of 100 μl of CFA (1:1 with sterile PBS) using a sterile 0.5 ml syringe. The CFA model produced inflammatory signs accompanied by thermal and mechanical hyperalgesia in the injected hindpaw within six to eight hours. The hypersensitivity peaks at 3 days, which was the first testing day of the analgesic topical formulations in the CFA model.
(§4) One of four treatments was applied to each rat on days 3, 7 and 11 after CFA injection or on days 7, 14 and 21 after SNI application. […] For the formulations with ibuprofen and/or gabapentin, the formulation also contained vasodilators arginine and methyl nicotinate, chelator EDTA, solvents dimethyl acetamide and water, osmolyte potassium hydroxide, lipids soy bean oil and olive oil, and various other excipients including eucalyptol, gelcarin GP-379NF, glyceryl monostearate, menthol, methyl paraben, propylparaben, phenoxyethanol, permulen TR-1, phospolipon 90H, ST elastomer, urea, and Vitamin E TPGS.
For application of the topical formulation, the rats were anesthetized with isoflurane for 30 min. while the creams were applied to both hindpaws to minimize oral absorption as described in Nozaki-Taguchi et al., Anesthesiology 90: 225-234, 1999; Iadarola et al., NIDA Res. Monogr. 75: 406-409, 1986. […]
In these studies, the sensory responsiveness to thermal (radiant heat) stimuli was assessed in terms of time to elicit paw withdrawal. […] Sensory responses to mechanical stimulus (von Frey stimulation) were also assessed prior to CFA injection and following several days after inflammation (FIGS. 2A-2C) or nerve injury (FIGS. 4A-5C). […]

Experiment [2] has as its system Complete Freund's Adjuvant (CFA)-induced thermal hyperalgesia. Kind of experiment: CFA inflammation model, thermal response (paw withdrawal latency to radiant heat), set A. Format: in vivo, Sprague-Dawley rats. The conditions noted are these: for thermal antihyperalgesia: topical cream to hindpaw, day 3 at 2 and 4 hours after treatment. How it is done: Baselines were established for all rats for thermal response latency before intraplantar (i.pl.) injection of the inflammatory agent. Three days after injection of the inflammatory agent (CFA), the degree of thermal hypersensitivity was determined followed by topical application to anesthetized rats of i) the drug-free cream, creams containing ii) ibuprofen, iii) gabapentin, and each the combination of ibuprofen with gabapentin using a topical cream optimized for deep skin penetration/vascular access. Six experimental groups were used in total Application of ibuprofen cream served both as an active pharmacological agent and positive control throughout these studies. The drug formulation and control cream (negative control) was applied to the glabrous side of the rat hindpaw using a previously published method. Nozaki-Taguchi, N. and T. L. Yaksh., Characterization of the Antihyperalgesic Action of a Novel Peripheral Mu-opioid Receptor Agonist-loperamide, Anesthesiology, 90: 225-234, 1999; Iadarola, M. J., et al., Increased Spinal Cord Dynorphin mRNA During Peripheral Inflammation, NIDA Re.s Monogr., 75: 406-409, 1986.
Rats were isoflurane-anesthetized (1-2%) and the cream (0.2 g) applied gently with a finger for 1 minute to the glabrous skin of the hindpaw. For low drug concentrations, 5% formulations of all drugs were. For high drug concentrations, 10% cream formulations were employed. […] Upon recovery from anesthesia (within 10 minutes of cessation of anesthetic), rats were moved to plexiglass enclosures for sensory assessment. Efficacy was initially tested at 1, 2, 4, 8, 24 hours after cream treatment; depending on initial results. Time was revised to track the onset and offset of drug effects.
as §1, §2, §3
as §4, with “TPGS. […]” for “TPGS.”

The mark [3] stands for this setting: day 11 at 2 hours after treatment.
The mark [4] stands for this setting: day 12 at 2 hours after treatment.
[5] abbreviates: CFA rats, days 7 and 12 post-CFA.

Turning to `NCC1(CC(=O)O)CCCCC1` [gabapentin], the “efficacy against mechanical hyperalgesia, agent given alone” value in experiment [1] (setting [3]) and in experiment [1] (setting [4]) was “efficacious” throughout. The “thermal antihyperalgesia (possible efficacy) on later days” value in experiment [2] (setting [5]) is “not repeated”. In experiment [2] (CFA rats), the thermal antihyperalgesia result was “borderline significant”. Besides, the “suppression of thermal hyperalgesia” value in experiment [2] (CFA rats, transdermal delivery, drug alone) is on record as “failed to suppress”.
Regarding `CC(C)Cc1ccc(C(C)C(=O)O)cc1` (stereo not drawn) [ibuprofen, 2-[4-(2-methylpropyl)phenyl]propanoic acid], the “efficacy against mechanical hyperalgesia, agent given alone” value in experiment [1] (setting [3]) and in experiment [1] (setting [4]) was “efficacious” throughout. For the same molecule, in experiment [2] (CFA rats, cream applied for 20 minutes, 1 hour after treatment on day 3 post-CFA), the reversal of hyperalgesia result is reported as “completely reversed”. The “duration of beneficial impact of the drug” value in experiment [2] (CFA rats, day 3 post-CFA) came to 4 h. In addition, the “hyperalgesia after 24 hours” value in experiment [2] (CFA rats, day 3 post-CFA, 24 hours after treatment) was “completely returned to the baseline level”. The “statistical significance of the effect” value in experiment [2] (CFA rats, day 3 post-CFA, vs vehicle (ANOVA, Dunnett)) was “statistically significant”. The “thermal antihyperalgesia (possible efficacy) on later days” value is given as “not repeated” in experiment [2] (CFA rats, days 7 and 11 post-CFA); “not repeated” in experiment [2] (setting [5]). Besides, in experiment [2] (CFA rats), the thermal antihyperalgesia result is given as “borderline significant”. The “reversal of thermal hypersensitivity” value in experiment [2] (FIGS. 1A-1C, at some time points during the testing period) is on record as “significant reversal”.
